Results published in paper PMC7985170, “Marine Peptide-N6NH2 and Its Derivative-GUON6NH2 Have Potent Antimicrobial Activity Against Intracellular Edwardsiella tarda in vitro and in vivo” (Frontiers in Microbiology, 2021).
Converted amounts (≈) assume the structure as drawn.

What was measured:
[1] = test system: inner membrane of E. tarda; test: Inner membrane penetration, PI staining by flow cytometry; type: cell-based, Edwardsiella tarda; conditions: 1× MIC, 5–30 min at 37°C, 1 × 10^8 CFU/mL
Procedure: Mid-log phase E. tarda cells (1 × 10^8 CFU/mL) were incubated with or without 1× MIC peptides solutions at 37°C for 5, 15, and 30 min, respectively. After washing twice with PBS, bacterial cells were then incubated with 50 μg/mL propidium iodide (PI) for 15 min and analyzed using a FACS Calibur Flow Cytometer (BD, United States) ([Stearns-Kurosawa et al., 2011]).

murine erythrocytes = type: cell-based, mouse
Procedure: The hemolysis of peptides was evaluated by determining the amount of hemoglobin that was released from fresh mouse erythrocytes ([Flamm et al., 2019]). The blood cells were washed three times with 10 mM PBS (pH 7.4) and centrifuged for 10 min (1,500 rpm). Erythrocyte solution (8%, v/v) was mixed with peptide solutions (1:1) and incubated for 1 h at 37°C. The mixture was then centrifuged for 5 min (1,500 rpm), and the absorbance of supernatants was measured at 540 nm. Values of 0 and 100% hemolysis were determined in PBS and 0.1% triton X-100, respectively. The hemolysis of peptides was calculated using the following formula: Hemolysis (%) = [(Abs treated sample – Abs negative control)/(Abs positive control – Abs negative control)] × 100.

E. coli CVCC1515 = type: cell-based, Escherichia coli
Procedure: (§1) The antimicrobial activity of peptides was determined by the microbroth dilution method ([Zhang et al., 2014]). The bacterial strains were incubated in Mueller-Hinton (MH) medium at 28°C or 37°C overnight. Bacteria (1 × 10^5 CFU/mL) were added into 96-well plates, followed by the addition of serial dilutions of peptides (from 0.0625 to 128 μg/mL). The plates were incubated at 37°C for 18–24 h. The minimal inhibitory concentration (MIC) value was determined as the lowest peptide concentration at which no bacterial growth was observed.

E. coli CVCC25922 = type: cell-based, Escherichia coli
Procedure: as §1

Gram-negative bacteria = test: Geometric mean of MICs and therapeutic index; type: cell-based
Procedure: as §1
(§2) The geometric mean (GM) of MICs of peptides against Gram-negative and Gram-positive bacteria was calculated, and the result was shown in Table 3. […] For Gram-negative bacteria, the TI value of GUON6NH2 (53.33) was very close to N6NH2 (58.18), while for positive bacteria, the TI value of GUON6NH2 (12.8) was slightly higher than that of N6NH2 (12.31), indicating their huge therapeutic potential. For Gram-positive bacteria, DN6NH2 had the highest TI value and the best therapeutic potential.

[2] = test system: Gram-negative and Gram-positive bacteria (ALL); test: Geometric mean of MICs and therapeutic index; type: cell-based
Procedure: as §1, §2

Gram-positive bacteria = test: Geometric mean of MICs and therapeutic index; type: cell-based
Procedure: as §1, §2

S. aureus ATCC546 = type: cell-based, Staphylococcus aureus
Procedure: as §1

S. aureus ATCC25923 = type: cell-based, Staphylococcus aureus
Procedure: as §1

[3] = type: cell-based, Streptococcus enteritidis
Procedure: as §1

[4] = test system: Staphylococcus aureus ATCC43300; type: cell-based
Procedure: as §1

[5] = test system: Salmonella pullorum CVCC1802; type: cell-based
Procedure: as §1

[6] = test system: Salmonella typhimurium CVCC533; type: cell-based; conditions: murium CVCC533
Procedure: as §1

Escherichia coli CVCC195 = type: cell-based
Procedure: as §1

[7] = test system: Staphylococcus hyicus 437-2; type: cell-based
Procedure: as §1

Edwardsiella tarda = type: cell-based
Procedure: as §1

S. hyicus 15095 = type: cell-based, Staphylococcus hyicus
Procedure: as §1

S. pullorum CVCC1789 = type: cell-based, Salmonella pullorum
Procedure: as §1

LPS = LPS binding, BODIPY-TR-cadaverine (BC) probe displacement; conditions: 0.5 μM LPS, 5 μM BC, Tris buffer pH 7.4; peptides 0.049 to 50 μM
Procedure: The BODIPY’-TR-cadaverine (BC) probe was used to determine the ability of peptides to bind to LPS ([Wang et al., 2020]). 0.5 μM LPS was incubated with 5 μM BC in […] Tris buffer (pH 7.4) for 4 h at 37°C. Subsequently, the peptides were added into the mixture and the final concentrations of peptides ranged from 0.049 to 50 μM. Ampicillin was used as the negative control. Changes in fluorescence were measured by a fluorescence spectrophotometry at room temperature (excitation/emission, 580/620 nm).

E. tarda = test: SEM and TEM morphology; type: cell-based, Edwardsiella tarda; conditions: 4× MIC, 2 h
Procedure: To further characterize the bactericidal effects of the peptides, scanning electron microscopy (SEM) and transmission electron microscopy (TEM) were used to visualize morphological changes ([Yang et al., 2019]). E. tarda was cultured to logarithmic growth stage (10^8 CFU/mL) and diluted with 0.01 M PBS (pH 7.4) to OD600 nm = 1. E. tarda cells were treated with 4× MIC peptides at 37°C for 2 h and the untreated cells were used as the control. Briefly, after centrifugation, the bacterial cells were washed three times with 0.1 M PBS (pH 7.2) and fixed overnight at 4°C with 2.5% glutaraldehyde. After washing again, the cells were fixed with 1% osmium tetroxide (OsO4) for 2 h and dehydrated in a graded ethanol series (50%–70%–85%–95% × 2–100%, × 2) for 15 min, respectively. The samples were then dried by CO2, sputtered with gold-palladium, and observed on a QUANTA200 SEM (FEI, Philips, Netherlands).
E. tarda cells were treated peptides before fixation as described above. The bacteria were washed with 0.01 M PBS (pH 7.4) for five times, 7 min each time, and fixed with 1% osmium acid buffer (4°C) for 1 h. After dehydration with a graded acetone series (30%–50%–70%–85%–95%–100% × 3), the cells were immersed in mixtures of acetone and resin (3:1, 1:1 and 1:3, respectively) for 40 min and in a pure epoxy resin overnight. The samples were then embedded in embedding medium and polymerized at 45°C for 3 h and at 65°C for 24 h, respectively. The sections were prepared using an ultramicrotome, stained with 1% uranyl acetate, and visualized by a JEM1400 (JEDL, Tokyo, Japan).

S. typhimurium ATCC14028 = type: cell-based, Salmonella typhimurium
Procedure: as §1

[8] = therapeutic index (TI), cell selectivity

CC(C)[C@H]1NC(=O)CNC(=O)[C@@H](CC(N)=O)NC(=O)[C@@H](CCCNC(=N)N)NC(=O)[C@@H](Cc2ccc(O)cc2)NC(=O)[C@@H](C(C)C)NC(=O)[C@H](NC(=O)[C@H](NC(=O)[C@@H](CC(N)=O)NC(=O)[C@@H](Cc2c[nH]c3ccccc23)NC(=O)[C@@H](C)NC(=O)[C@@H](Cc2ccccc2)NC(=O)CN)C(C)C)CSSC[C@H](C(=O)N[C@H](Cc2c[nH]cn2)C(=O)N[C@H](CCCNC(=N)N)C(=O)N[C@H](CCCNC(=N)N)C(=O)N[C@H](C)C(=O)N[C@H](CC(N)=O)C(N)=O)NC(=O)[C@@H](C(C)C)NC(=O)[C@@H](CCCNC(=N)N)NC1=O [DN6NH2]
penetration rate (PI-stained cells) [1]: 1.3–16.1%
MHC (murine erythrocytes): >128 µg/mL
MIC (E. coli CVCC1515): 4 µg/mL (≈ 1.62 µM)
MIC (E. coli CVCC25922): 8 µg/mL (≈ 3.23 µM)
GM Gram-negative bacteria (Gram-negative bacteria; geometric mean (GM) of MICs against Gram-negative bacteria): 8.2 µg/mL
TI Gram-negative bacteria (Gram-negative bacteria; [8]): 31.22
GM ALL ([2]; geometric mean (GM) of MICs, all strains): 8.13 µg/mL
TI ALL [2, 8]: 31.49
GM Gram-positive bacteria (Gram-positive bacteria; geometric mean (GM) of MICs against Gram-positive bacteria): 8 µg/mL
TI Gram-positive bacteria (Gram-positive bacteria; [8]): 32
MIC (S. aureus ATCC546): 16 µg/mL (≈ 6.46 µM)
MIC (S. aureus ATCC25923): 8 µg/mL (≈ 3.23 µM)
MIC [3]: 2 µg/mL (≈ 0.808 µM)
MIC [4]: 4 µg/mL (≈ 1.62 µM)
MIC [5]: 8 µg/mL (≈ 3.23 µM)
MIC [6]: 16 µg/mL (≈ 6.46 µM)
MIC (Escherichia coli CVCC195): 8 µg/mL (≈ 3.23 µM)
MIC [7]: 8 µg/mL (≈ 3.23 µM)
MIC (Edwardsiella tarda): 8 µg/mL (≈ 3.23 µM)
MIC (S. hyicus 15095): 4 µg/mL (≈ 1.62 µM)
MIC (S. pullorum CVCC1789): 16 µg/mL (≈ 6.46 µM)
ability to bind to LPS (BC probe displacement) (LPS): V112N6NH2 > GUON6NH2 > N6NH2 > DN6NH2 > N6PNH2
morphological changes by SEM (E. tarda): no significant change in the bacterial cell structures
MIC (S. typhimurium ATCC14028): 8 µg/mL (≈ 3.23 µM)

CC1(C)S[C@@H]2[C@H](NC(=O)[C@H](N)c3ccccc3)C(=O)N2[C@H]1C(=O)O [ampicillin, Ampicillin, reference compound]
ability to bind to LPS (BC probe displacement) (LPS): did not replace BC probe to bind to LPS
